Experimental data published in patent US10046060B2, “Co-administration of an agent linked to an internalization peptide with an anti-inflammatory” (NoNO Inc., priority 2007, dated 2018).
“Also recorded” adds a separate entry of the source. Ends that are not written are not given here.

Experiments:
Beagle dogs = assay: GLP 14-day intravenous toxicity study (CRM Study No. 501448): clinical signs and plasma histamine; format: in vivo, dog
Method: Blood samples (approximately 1 mL) were collected from all animals on Days 1, 6 and 12 at predose, 5 and 15 minutes post injection. Blood samples were collected by venipuncture (jugular, saphenous and cephalic) into tubes containing EDTA. The samples were then centrifuged (within 30 minutes of collection) in a refrigerated centrifuge (ca. 4° C.) at 2700 rpm for 10 minutes. Plasma were separated into a second tube with the appropriate label and stored at −80° C. until analysis at CRM. Plasma samples were used for investigating histamine levels. Samples from animals dosed intravenously with Tat-NR2B9c were analyzed using a validated method.

humans = assay: Safety, Tolerability and Pharmacokinetic Study in humans: adverse events; format: in vivo, human
Method: We carried out a Safety, Tolerability and Pharmacokinetic Study of Tat-NR2B9c in humans. Subjects were either normal, healthy, non-smoking males or post-menopausal or surgically sterile female subjects with a minimum age of 18 years. The subjects were either administered Tat-NR2B9c, Lot #: 124-134-001B, or were given placebo (Phosphate Buffered Saline), Lot #: 124-134-001A, administered as an intravenous infusion (10±1 minutes). Four subjects were dosed in each of Cohorts 1 to 3, and 10 subjects were dosed in each of Cohorts 4 to 8. All 62 subjects completed the study. Treatment periods for each cohort were as follows: Cohort 1: Sep. 14, 2006; Cohort 2: Sep. 26, 2006; Cohort 3: Oct. 6, 2006; Cohort 4: Oct. 20, 2006; Cohort 5: Nov. 6, 2006; Cohort 6: Dec. 4, 2006; Cohort 7: Dec. 17, 2006; Cohort 8: Feb. 25, 2007.
The safety assessment was performed on all subjects who received at least 1 dose during the course of the study. The incidents of all adverse events (AEs) were tabulated by treatment and subject number. Absolute values for vital signs, electrocardiogram (ECG) parameters, laboratory parameters and physical examinations were also documented and values outside the nomial range were flagged. Shifts from baseline values were tabulated. AEs were documented using investigator and Medical Dictionary for Regulatory Activities (MedDRA) terms.

rats = assay: Mean arterial pressure (MAP) in rats after Tat peptides with or without anti-inflammatory agents; conditions: 7.5 mg/kg bolus; FIG. 7

YGRKKRRQRRRKLSSIESDV [Tat-NR2B9c]
Lethargy and unpalpable pulse as characterized by attending veterinarian (Beagle dogs; 10 mg/kg daily i.v.): severe hypotensive reaction
Clinical signs (Beagle dogs; 10 mg/kg daily i.v., 14 days, all animals): treatment-related clinical signs
Change of histamine levels during 14-day repeated dosing (Beagle dogs; any dose level): no consistent increase in histamine levels
Plasma histamine levels (Beagle dogs; immediately following the first administration, naive dogs): increased histamine levels
AEs of the higher doses at the lower dose range (humans; 0.02 to 1.50 mg/kg): minimal or not present
Incidence of AEs vs lower dose groups and placebo (humans; 2.60 and 3.75 mg/kg dose groups): significantly more AEs; also recorded: higher
Serious Adverse Events (humans; all doses): No Serious Adverse Events (SAEs) were reported
Active treatment subjects with at least 1 AE (humans; all doses 0.02-3.75 mg/kg): 73.9%
Doses at which several AEs were frequently reported (humans; decreased blood pressure, paraesthesia, hypoaesthesia, erythema, rash, pruritus, dry mouth, nausea, feeling hot, flushing): ≥ 2.60 mg/kg
Subjects feeling hot (humans; subjects receiving Tat-NR2B9c): 28.3%
Subjects feeling hot (count) (humans; subjects receiving Tat-NR2B9c): 13/46
Subjects with dry mouth (humans; subjects receiving Tat-NR2B9c): 19.6%
Subjects with dry mouth (count) (humans; subjects receiving Tat-NR2B9c): 9/46
Subjects with flushing (humans; subjects receiving Tat-NR2B9c): 21.7%
Subjects with flushing (count) (humans; subjects receiving Tat-NR2B9c): 10/46
Subjects with pruritis (humans; subjects receiving Tat-NR2B9c): 26.1%
Subjects with pruritis (count) (humans; subjects receiving Tat-NR2B9c): 12/46
Effect on MAP (printed MAT) after injection (rats): rapid and transient reduction; also recorded: reduction in blood pressure
